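All cell lines were grown in 96-well plates and treated with compound for 48 hours. GI50: concentration for 50% inhibition of growth. At the TGI there is no net growth.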
Tests used:
Assay in all cases: NCI-60 cell line screen, 48 h
786-0 renal = tested on: 786-0 renal
A498 renal = tested on: A498 renal
A549 NSCLC = tested on: A549 NSCLC
ACHN renal = tested on: ACHN renal
BT-549 breast = tested on: BT-549 breast
CAKI-1 renal = tested on: CAKI-1 renal
CCRF-CEM leukemia = tested on: CCRF-CEM leukemia
COLO 205 colon = tested on: COLO 205 colon
DU-145 prostate = tested on: DU-145 prostate
HCC-2998 colon = tested on: HCC-2998 colon
HCT-116 colon = tested on: HCT-116 colon
HCT-15 colon = tested on: HCT-15 colon
HL-60(TB) leukemia = tested on: HL-60(TB) leukemia
HOP-62 NSCLC = tested on: HOP-62 NSCLC
HOP-92 NSCLC = tested on: HOP-92 NSCLC
HS 578T breast = tested on: HS 578T breast
HT29 colon = tested on: HT29 colon
IGROV1 ovarian = tested on: IGROV1 ovarian
K-562 leukemia = tested on: K-562 leukemia
KM12 colon = tested on: KM12 colon
LOX IMVI melanoma = tested on: LOX IMVI melanoma
M14 melanoma = tested on: M14 melanoma
MALME-3M melanoma = tested on: MALME-3M melanoma
MCF7 breast = tested on: MCF7 breast
MDA-MB-231 breast = tested on: MDA-MB-231 breast
MDA-MB-435 = tested on: MDA-MB-435
MOLT-4 leukemia = tested on: MOLT-4 leukemia
NCI-H226 lung = tested on: NCI-H226 lung
NCI-H23 lung = tested on: NCI-H23 lung
NCI-H460 lung = tested on: NCI-H460 lung
NCI-H522 lung = tested on: NCI-H522 lung
NCI/ADR-RES ovarian = tested on: NCI/ADR-RES ovarian
OVCAR-3 ovarian = tested on: OVCAR-3 ovarian
OVCAR-4 ovarian = tested on: OVCAR-4 ovarian
OVCAR-5 ovarian = tested on: OVCAR-5 ovarian
OVCAR-8 ovarian = tested on: OVCAR-8 ovarian
PC-3 prostate = tested on: PC-3 prostate
RPMI-8226 leukemia = tested on: RPMI-8226 leukemia
RXF 393 renal = tested on: RXF 393 renal
SF-268 CNS = tested on: SF-268 CNS
SF-295 CNS = tested on: SF-295 CNS
SF-539 CNS = tested on: SF-539 CNS
SK-MEL-2 melanoma = tested on: SK-MEL-2 melanoma
SK-MEL-28 melanoma = tested on: SK-MEL-28 melanoma
SK-MEL-5 melanoma = tested on: SK-MEL-5 melanoma
SK-OV-3 ovarian = tested on: SK-OV-3 ovarian
SN12C renal = tested on: SN12C renal
SNB-19 CNS = tested on: SNB-19 CNS
SNB-75 CNS = tested on: SNB-75 CNS
SR leukemia = tested on: SR leukemia
SW-620 colon = tested on: SW-620 colon
T-47D breast = tested on: T-47D breast
TK-10 renal = tested on: TK-10 renal
U251 CNS = tested on: U251 CNS
UACC-257 melanoma = tested on: UACC-257 melanoma
UACC-62 melanoma = tested on: UACC-62 melanoma
UO-31 renal = tested on: UO-31 renal

Nc1c(C(=O)c2ccc(CCCN3CCOCC3)cc2)cnn1-c1ccc(F)cc1
GI50 (786-0 renal): > 25 µM
TGI (786-0 renal): > 25 µM
GI50 (A498 renal): > 14.5 µM
TGI (A498 renal): > 25 µM
GI50 (A549 NSCLC): > 25 µM
TGI (A549 NSCLC): > 25 µM
GI50 (ACHN renal): > 25 µM
TGI (ACHN renal): > 25 µM
GI50 (BT-549 breast): > 25 µM
TGI (BT-549 breast): > 25 µM
GI50 (CAKI-1 renal): > 25 µM
TGI (CAKI-1 renal): > 25 µM
GI50 (CCRF-CEM leukemia): > 25 µM
TGI (CCRF-CEM leukemia): > 25 µM
GI50 (COLO 205 colon): > 25 µM
TGI (COLO 205 colon): > 25 µM
GI50 (DU-145 prostate): > 25 µM
TGI (DU-145 prostate): > 25 µM
GI50 (HCC-2998 colon): > 25 µM
TGI (HCC-2998 colon): > 25 µM
GI50 (HCT-116 colon): > 25 µM
TGI (HCT-116 colon): > 25 µM
GI50 (HCT-15 colon): > 25 µM
TGI (HCT-15 colon): > 25 µM
GI50 (HL-60(TB) leukemia): > 25 µM
TGI (HL-60(TB) leukemia): > 25 µM
GI50 (HOP-62 NSCLC): > 25 µM
TGI (HOP-62 NSCLC): > 25 µM
GI50 (HOP-92 NSCLC): 3.22 µM
TGI (HOP-92 NSCLC): > 25 µM
GI50 (HS 578T breast): > 25 µM
TGI (HS 578T breast): > 25 µM
GI50 (HT29 colon): > 25 µM
TGI (HT29 colon): > 25 µM
GI50 (IGROV1 ovarian): > 25 µM
TGI (IGROV1 ovarian): > 25 µM
GI50 (K-562 leukemia): 9.33 µM
TGI (K-562 leukemia): > 25 µM
GI50 (KM12 colon): > 25 µM
TGI (KM12 colon): > 25 µM
GI50 (LOX IMVI melanoma): > 25 µM
TGI (LOX IMVI melanoma): > 25 µM
GI50 (M14 melanoma): > 25 µM
TGI (M14 melanoma): > 25 µM
GI50 (MALME-3M melanoma): > 25 µM
TGI (MALME-3M melanoma): > 25 µM
GI50 (MCF7 breast): > 25 µM
TGI (MCF7 breast): > 25 µM
GI50 (MDA-MB-231 breast): > 25 µM
TGI (MDA-MB-231 breast): > 25 µM
GI50 (MDA-MB-435): > 25 µM
TGI (MDA-MB-435): > 25 µM
GI50 (MOLT-4 leukemia): > 25 µM
TGI (MOLT-4 leukemia): > 25 µM
GI50 (NCI-H226 lung): > 15.2 µM
TGI (NCI-H226 lung): > 25 µM
GI50 (NCI-H23 lung): > 25 µM
TGI (NCI-H23 lung): > 25 µM
GI50 (NCI-H460 lung): > 25 µM
TGI (NCI-H460 lung): > 25 µM
GI50 (NCI-H522 lung): > 25 µM
TGI (NCI-H522 lung): > 25 µM
GI50 (NCI/ADR-RES ovarian): > 25 µM
TGI (NCI/ADR-RES ovarian): > 25 µM
GI50 (OVCAR-3 ovarian): 24.3 µM
TGI (OVCAR-3 ovarian): > 25 µM
GI50 (OVCAR-4 ovarian): > 19.1 µM
TGI (OVCAR-4 ovarian): > 25 µM
GI50 (OVCAR-5 ovarian): > 25 µM
TGI (OVCAR-5 ovarian): > 25 µM
GI50 (OVCAR-8 ovarian): > 25 µM
TGI (OVCAR-8 ovarian): > 25 µM
GI50 (PC-3 prostate): > 25 µM
TGI (PC-3 prostate): > 25 µM
GI50 (RPMI-8226 leukemia): > 15.4 µM
TGI (RPMI-8226 leukemia): > 25 µM
GI50 (RXF 393 renal): > 25 µM
TGI (RXF 393 renal): > 25 µM
GI50 (SF-268 CNS): > 25 µM
TGI (SF-268 CNS): > 25 µM
GI50 (SF-295 CNS): > 25 µM
TGI (SF-295 CNS): > 25 µM
GI50 (SF-539 CNS): > 25 µM
TGI (SF-539 CNS): > 25 µM
GI50 (SK-MEL-2 melanoma): > 25 µM
TGI (SK-MEL-2 melanoma): > 25 µM
GI50 (SK-MEL-28 melanoma): > 25 µM
TGI (SK-MEL-28 melanoma): > 25 µM
GI50 (SK-MEL-5 melanoma): 8.01 µM
TGI (SK-MEL-5 melanoma): 24.3 µM
GI50 (SK-OV-3 ovarian): > 25 µM
TGI (SK-OV-3 ovarian): > 25 µM
GI50 (SN12C renal): > 25 µM
TGI (SN12C renal): > 25 µM
GI50 (SNB-19 CNS): > 25 µM
TGI (SNB-19 CNS): > 25 µM
GI50 (SNB-75 CNS): > 25 µM
TGI (SNB-75 CNS): > 25 µM
GI50 (SR leukemia): > 20.4 µM
TGI (SR leukemia): > 25 µM
GI50 (SW-620 colon): > 25 µM
TGI (SW-620 colon): > 25 µM
GI50 (T-47D breast): 10.3 µM
TGI (T-47D breast): > 25 µM
GI50 (TK-10 renal): > 25 µM
TGI (TK-10 renal): > 25 µM
GI50 (U251 CNS): > 25 µM
TGI (U251 CNS): > 25 µM
GI50 (UACC-257 melanoma): 24.3 µM
TGI (UACC-257 melanoma): > 25 µM
GI50 (UACC-62 melanoma): > 25 µM
TGI (UACC-62 melanoma): > 25 µM
GI50 (UO-31 renal): > 25 µM
TGI (UO-31 renal): > 25 µM
